In patent publication US9266883B2, “Ring-fused bicyclic pyridyl derivatives as FGFR4 inhibitors” (Novartis AG, priority 2013, dated 2016):
Where two headings read alike, the source gives them in different places.

Assays:
[1] = tested on: HuH-7 hepatocellular carcinoma cells; experiment: CellTiter Glo (CTG) Assay; conditions: Homo sapiens, Huh-7, 72 h, read-out: HUH7 proliferation (nM) CTG
[2] = target: FGFR4 (GST-FGFR4(388-802)) (Homo sapiens (Human), UniProt P22455); experiment: In-vitro biochemical kinase assay for FGFR4 (Caliper microfluidic mobility shift); conditions: biochemical FGFR4 assay; read-out: Biochemical IC50
Tel-FGFR4 = Tel-FGFR4 (Homo sapiens (Human), UniProt P22455); experiment: In vitro cellular kinase assay for FGFR4 (BaF3-Tel-FGFR4 cells, MSD capture ELISA of tyrosine phosphorylation); type: cell-based
[3] = Cellular BaF3 FGFR4 assay, read-out: Cellular IC50

Sequence of Tel-FGFR4 (P22455 other isoform, or with tags, fused parts or gaps): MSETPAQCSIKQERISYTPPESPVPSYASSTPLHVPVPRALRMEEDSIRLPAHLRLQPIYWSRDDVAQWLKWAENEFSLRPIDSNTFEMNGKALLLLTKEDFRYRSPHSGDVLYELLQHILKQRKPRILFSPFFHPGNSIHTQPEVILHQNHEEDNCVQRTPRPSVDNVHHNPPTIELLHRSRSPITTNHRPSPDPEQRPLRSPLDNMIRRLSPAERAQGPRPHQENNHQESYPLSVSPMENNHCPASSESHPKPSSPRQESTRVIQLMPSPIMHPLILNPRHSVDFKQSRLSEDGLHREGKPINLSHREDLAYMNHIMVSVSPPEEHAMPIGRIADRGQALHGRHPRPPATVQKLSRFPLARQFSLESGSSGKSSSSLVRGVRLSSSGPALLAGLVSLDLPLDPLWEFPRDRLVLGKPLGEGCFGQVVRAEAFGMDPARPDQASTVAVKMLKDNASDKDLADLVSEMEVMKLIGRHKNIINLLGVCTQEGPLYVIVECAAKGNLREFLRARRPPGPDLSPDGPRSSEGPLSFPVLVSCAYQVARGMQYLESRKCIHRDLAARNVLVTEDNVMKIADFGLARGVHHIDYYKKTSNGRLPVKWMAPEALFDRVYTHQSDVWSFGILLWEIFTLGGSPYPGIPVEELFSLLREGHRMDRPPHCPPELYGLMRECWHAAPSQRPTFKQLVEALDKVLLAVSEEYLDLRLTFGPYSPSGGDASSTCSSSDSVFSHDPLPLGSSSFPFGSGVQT
Sequence of FGFR4 (GST-FGFR4(388-802)) (P22455 388-802): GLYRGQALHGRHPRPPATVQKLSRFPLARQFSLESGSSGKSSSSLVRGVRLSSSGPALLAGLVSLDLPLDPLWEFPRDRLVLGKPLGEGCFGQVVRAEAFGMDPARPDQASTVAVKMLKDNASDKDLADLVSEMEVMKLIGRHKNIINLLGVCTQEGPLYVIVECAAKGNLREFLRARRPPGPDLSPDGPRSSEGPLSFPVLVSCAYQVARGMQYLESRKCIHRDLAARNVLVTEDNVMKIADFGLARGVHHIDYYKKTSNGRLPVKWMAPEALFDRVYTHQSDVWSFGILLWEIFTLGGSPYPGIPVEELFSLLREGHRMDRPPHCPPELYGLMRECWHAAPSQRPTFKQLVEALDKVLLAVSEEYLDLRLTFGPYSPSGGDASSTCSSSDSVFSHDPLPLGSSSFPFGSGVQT

In the case of `N#Cc1cnc(NC(=O)N2CCCc3ccc(C=O)nc32)cc1OCC1CCCCO1` (racemic) [Example 36, N-(5-cyano-4-((tetrahydro-2H-pyran-2-yl)methoxy)pyridin-2-yl)-7-formyl-3,4-dihydro-1,8-naphthyridine-1(2H)-carboxamide], the IC50 [1] is reported as > 3000 nM.
With `CN1CCCC(COc2cc(NC(=O)N3CCCc4cc(CO)c(C=O)nc43)ncc2C#N)C1` (racemic) [Example 73, N-(5-cyano-4-((1-methylpiperidin-3-yl)methoxy)pyridin-2-yl)-7-formyl-6-(hydroxymethyl)-3,4-dihydro-1,8-naphthyridine-1(2H)-carboxamide] the IC50 [1] was 502 nM.
Work on `COCCNc1cc(NC(=O)N2CCCc3cc(C(C)N(C)C(C)=O)c(C=O)nc32)ncc1C#N` (racemic) [Example 135, N-(5-cyano-4-((2-methoxyethyl)amino)pyridin-2-yl)-7-formyl-6-(1-(N-methylacetamido)ethyl)-3,4-dihydro-1,8-naphthyridine-1(2H)-carboxamide] yielded an IC50 [1] of 2850 nM.
With `COCCNc1cc(NC(=O)N2CCCc3cc(CN4C(=O)COC[C@H]4C)c(C=O)nc32)ncc1C#N` [Example 118, (R)-N-(5-cyano-4-((2-methoxyethyl)amino)pyridin-2-yl)-7-formyl-6-((3-methyl-5-oxomorpholino)methyl)-3,4-dihydro-1,8-naphthyridine-1(2H)-carboxamide] the IC50 [1] was 101 nM.
`COCCNc1cc(NC(=O)N2CCCc3cc(CN4C(=O)COC[C@@H]4C)c(C=O)nc32)ncc1C#N` [Example 120, (S)-N-(5-cyano-4-((2-methoxyethyl)amino)pyridin-2-yl)-7-formyl-6-((3-methyl-5-oxomorpholino)methyl)-3,4-dihydro-1,8-naphthyridine-1(2H)-carboxamide] showed an IC50 [1] of 160 nM.
`COCCNc1cc(NC(=O)N2CCCc3cc(CN4CCCC45COC5)c(C=O)nc32)ncc1C#N` [Example 193, 6-(2-oxa-5-azaspiro[3.4]octan-5-ylmethyl)-N-(5-cyano-4-((2-methoxyethyl)amino)pyridin-2-yl)-7-formyl-3,4-dihydro-1,8-naphthyridine-1(2H)-carboxamide] gave an IC50 [1] of 2780 nM.
Compound `CCN(Cc1cc2c(nc1C=O)N(C(=O)Nc1cc(NC(C)C)c(C#N)cn1)CCC2)C(=O)CN(C)C` [N-(5-cyano-4-(isopropylamino)pyridin-2-yl)-6-((2-(dimethylamino)-N-ethylacetamido)methyl)-7-formyl-3,4-dihydro-1,8-naphthyridine-1(2H)-carboxamide] has an IC50 [2] of 0.8 nM and an IC50 (Tel-FGFR4; [3]) of 10.4 nM.
In the case of `CC(C)Nc1cc(NC(=O)N2CCCc3cc(CN(C)C(=O)CN(C)C)c(C=O)nc32)ncc1C#N` [N-(5-cyano-4-(isopropylamino)pyridin-2-yl)-6-((2-(dimethylamino)-N-methylacetamido)methyl)-7-formyl-3,4-dihydro-1,8-naphthyridine-1(2H)-carboxamide], the IC50 [2] is reported as 0.6 nM and the IC50 (Tel-FGFR4; [3]) is reported as 11.5 nM.
Compound `CC(C)Nc1cc(NC(=O)N2CCCc3cc(C(F)F)c(C=O)nc32)ncc1C#N` [N-(5-cyano-4-(isopropylamino)pyridin-2-yl)-6-(difluoromethyl)-7-formyl-3,4-dihydro-1,8-naphthyridine-1(2H)-carboxamide] has an IC50 [2] of 1.3 nM and an IC50 (Tel-FGFR4; [3]) of 20.3 nM.
`CC(C)Nc1cc(NC(=O)N2CCCc3cc(CO)c(C=O)nc32)ncc1C#N` [N-(5-cyano-4-(isopropylamino)pyridin-2-yl)-7-formyl-6-(hydroxymethyl)-3,4-dihydro-1,8-naphthyridine-1(2H)-carboxamide] showed an IC50 [2] of 2 nM and an IC50 (Tel-FGFR4; [3]) of 8.6 nM.
In the case of `CCN(Cc1cc2c(nc1C=O)N(C(=O)Nc1cc(NC)c(C#N)cn1)CCC2)C(=O)CN(C)C` [N-(5-cyano-4-(methylamino)pyridin-2-yl)-6-((2-(dimethylamino)-N-ethylacetamido)methyl)-7-formyl-3,4-dihydro-1,8-naphthyridine-1(2H)-carboxamide], the IC50 [2] is reported as 12 nM and the IC50 (Tel-FGFR4; [3]) is reported as 13 nM.
`CCOc1cc(NC(=O)N2CCCc3cc(CN4CCN(C)CC4=O)c(C=O)nc32)ncc1C#N` [N-(5-cyano-4-ethoxypyridin-2-yl)-7-formyl-6-((4-methyl-2-oxopiperazin-1-yl)methyl)-3,4-dihydro-1,8-naphthyridine-1(2H)-carboxamide] was tested, and the IC50 [2] was 1.3 nM and the IC50 (Tel-FGFR4; [3]) was 6.9 nM.
`CCc1cc(NC(=O)N2CCCc3cc(CN4CCN(C)CC4=O)c(C=O)nc32)ncc1C#N` [N-(5-cyano-4-ethylpyridin-2-yl)-7-formyl-6-((4-methyl-2-oxopiperazin-1-yl)methyl)-3,4-dihydro-1,8-naphthyridine-1(2H)-carboxamide] showed an IC50 [2] of 8.9 nM and an IC50 (Tel-FGFR4; [3]) of 22.5 nM.
In the case of `CC(C)COc1cc(NC(=O)N2CCCc3cc(C(F)F)c(C=O)nc32)ncc1C#N` [N-(5-cyano-4-isobutoxypyridin-2-yl)-6-(difluoromethyl)-7-formyl-3,4-dihydro-1,8-naphthyridine-1(2H)-carboxamide], the IC50 [2] is reported as 30 nM and the IC50 (Tel-FGFR4; [3]) is reported as 139 nM.
`CC(=O)N(C)Cc1cc2c(nc1C=O)N(C(=O)Nc1cc(OCC(C)C)c(C#N)cn1)CCC2` [N-(5-cyano-4-isobutoxypyridin-2-yl)-7-formyl-6-((N-methylacetamido)methyl)-3,4-dihydro-1,8-naphthyridine-1(2H)-carboxamide] showed an IC50 [2] of 1.3 nM and an IC50 (Tel-FGFR4; [3]) of 6 nM.
In the case of `CC(C)Oc1cc(NC(=O)N2CCCc3cc(C(F)F)c(C=O)nc32)ncc1C#N` [N-(5-cyano-4-isopropoxypyridin-2-yl)-6-(difluoromethyl)-7-formyl-3,4-dihydro-1,8-naphthyridine-1(2H)-carboxamide], the IC50 [2] is reported as 1.2 nM and the IC50 (Tel-FGFR4; [3]) is reported as 21 nM.
With `CC(C)Oc1cc(NC(=O)N2c3nc(C=O)ccc3CCC2C)ncc1C#N` (centres unmarked) [N-(5-cyano-4-isopropoxypyridin-2-yl)-7-formyl-2-methyl-3,4-dihydro-1,8-naphthyridine-1(2H)-carboxamide] the IC50 [2] was 0.9 nM and the IC50 (Tel-FGFR4; [3]) was 328 nM.
`CC(C)Oc1cc(NC(=O)N2CCCc3cc(CN4CCOC4=O)c(C=O)nc32)ncc1C#N` [N-(5-cyano-4-isopropoxypyridin-2-yl)-7-formyl-6-((2-oxooxazolidin-3-yl)methyl)-3,4-dihydro-1,8-naphthyridine-1(2H)-carboxamide] showed an IC50 [2] of 1.3 nM and an IC50 (Tel-FGFR4; [3]) of 5.6 nM.
`CC(C)Oc1cc(NC(=O)N2CCCc3cc(CN4CCNCC4=O)c(C=O)nc32)ncc1C#N` [N-(5-cyano-4-isopropoxypyridin-2-yl)-7-formyl-6-((2-oxopiperazin-1-yl)methyl)-3,4-dihydro-1,8-naphthyridine-1(2H)-carboxamide] gave an IC50 [2] of 2.1 nM and an IC50 (Tel-FGFR4; [3]) of 9.9 nM.
`CC(C)Oc1cc(NC(=O)N2CCCc3cc(CN4CCNC(=O)C4)c(C=O)nc32)ncc1C#N` [N-(5-cyano-4-isopropoxypyridin-2-yl)-7-formyl-6-((3-oxopiperazin-1-yl)methyl)-3,4-dihydro-1,8-naphthyridine-1(2H)-carboxamide] gave an IC50 [2] of 1.6 nM and an IC50 (Tel-FGFR4; [3]) of 23.5 nM.
Work on `CC(C)Oc1cc(NC(=O)N2CCCc3cc(CN4CCN(C)C(=O)C4)c(C=O)nc32)ncc1C#N` [N-(5-cyano-4-isopropoxypyridin-2-yl)-7-formyl-6-((4-methyl-3-oxopiperazin-1-yl)methyl)-3,4-dihydro-1,8-naphthyridine-1(2H)-carboxamide] yielded an IC50 [2] of 1.7 nM and an IC50 (Tel-FGFR4; [3]) of 17 nM.
In the case of `CC(C)Oc1cc(NC(=O)N2CCCc3cc(CN4CCN(C)CC4)c(C=O)nc32)ncc1C#N` [N-(5-cyano-4-isopropoxypyridin-2-yl)-7-formyl-6-((4-methylpiperazin-1-yl)methyl)-3,4-dihydro-1,8-naphthyridine-1(2H)-carboxamide], the IC50 [2] is reported as 3 nM and the IC50 (Tel-FGFR4; [3]) is reported as 55.5 nM.
Compound `CC(C)Oc1cc(NC(=O)N2CCCc3cc(CN(C)C(=O)C(C)C)c(C=O)nc32)ncc1C#N` [N-(5-cyano-4-isopropoxypyridin-2-yl)-7-formyl-6-((N-methylisobutyramido)methyl)-3,4-dihydro-1,8-naphthyridine-1(2H)-carboxamide] has an IC50 [2] of 1.2 nM and an IC50 (Tel-FGFR4; [3]) of 12.5 nM.
`CCC(=O)N(C)Cc1cc2c(nc1C=O)N(C(=O)Nc1cc(OC(C)C)c(C#N)cn1)CCC2` [N-(5-cyano-4-isopropoxypyridin-2-yl)-7-formyl-6-((N-methylpropionamido)methyl)-3,4-dihydro-1,8-naphthyridine-1(2H)-carboxamide] was tested, and the IC50 [2] was 0.9 nM, the IC50 (Tel-FGFR4; [3]) was 18.5 nM and the IC50 (Tel-FGFR4; measured and considered as outlier values, not included in the table or list, read-out: IC50 in the cellular BaF3 FGFR4 assay, outlier values) was > 3000 nM.
`CC(C)Oc1cc(NC(=O)N2CCCc3cc(CO)c(C=O)nc32)ncc1C#N` [N-(5-cyano-4-isopropoxypyridin-2-yl)-7-formyl-6-(hydroxymethyl)-3,4-dihydro-1,8-naphthyridine-1(2H)-carboxamide] was tested, and the IC50 [2] was 2.8 nM and the IC50 (Tel-FGFR4; [3]) was 9.1 nM.
Work on `CC(C)Oc1cc(NC(=O)N2CCCc3cc(CN4CCCC4)c(C=O)nc32)ncc1C#N` [N-(5-cyano-4-isopropoxypyridin-2-yl)-7-formyl-6-(pyrrolidin-1-ylmethyl)-3,4-dihydro-1,8-naphthyridine-1(2H)-carboxamide] yielded an IC50 [2] of 26.4 nM and an IC50 (Tel-FGFR4; [3]) of 854 nM.
With `COc1cc(NC(=O)N2CCCc3cc(CN4CCCC4(C)C)c(C=O)nc32)ncc1C#N` [N-(5-cyano-4-methoxypyridin-2-yl)-6-((2,2-dimethylpyrrolidin-1-yl)methyl)-7-formyl-3,4-dihydro-1,8-naphthyridine-1(2H)-carboxamide] the IC50 [2] was 440 nM and the IC50 (Tel-FGFR4; [3]) was > 3000 nM.
Work on `COc1cc(NC(=O)N2CCCc3cc(CN4CCN(C)CC4=O)c(C=O)nc32)ncc1C#N` [N-(5-cyano-4-methoxypyridin-2-yl)-7-formyl-6-((4-methyl-2-oxopiperazin-1-yl)methyl)-3,4-dihydro-1,8-naphthyridine-1(2H)-carboxamide] yielded an IC50 [2] of 4.8 nM and an IC50 (Tel-FGFR4; [3]) of 10.2 nM.
Work on `COc1nc(NC(=O)N2CCCc3cc(CN4CCN(C)CC4=O)c(C=O)nc32)ncc1C#N` [N-(5-cyano-4-methoxypyrimidin-2-yl)-7-formyl-6-((4-methyl-2-oxopiperazin-1-yl)methyl)-3,4-dihydro-1,8-naphthyridine-1(2H)-carboxamide] yielded an IC50 [2] of 49 nM and an IC50 (Tel-FGFR4; [3]) of 75 nM.
